Results published in patent US10246453B2, “Benzenesulfonamide compounds and their use as therapeutic agents” (Xenon Pharmaceuticals Inc., priority 2016, dated 2019).
pIC50: −log10 of the molar value. Counter-ions that a name gives are not always drawn.

Key:
NaV1.5 = NaV1.5 (Homo sapiens (Human), UniProt Q14524); assay: Sodium Influx Assay (Flux), NaV1.5; details: read-out: Flux NaV1.5 IC50; Trex HEK293 cells, ANG2 dye; arithmetic mean
NaV1.6 [1] = biological target: T1, NaV1.6 (Homo sapiens (Human), UniProt Q9UQD0); assay: Electrophysiological Assay (EP), patch voltage clamp, NaV1.6; type: cell-based; details: HEK-293 cells, whole-cell patch clamp, inactivated state; arithmetic mean
Excerpt: Patch voltage clamp electrophysiology allows for the direct measurement and quantification of block of voltage-gated sodium channels (Nay's), and allows the determination of the time-and voltage-dependence of block which has been interpreted as differential binding to the resting, open, and inactivated states of the sodium channel (Hille, B., Journal of General Physiology (1977), 69: 497-515).
NaV1.1, NaV1.5 and NaV1.6 cDNAs (NM_001165964 (SCN1A), NM_000335 (SCN5A) and NM_014191 (SCN8A), respectively) were stably expressed in HEK-293 cells.
Sodium currents were measured using the patch clamp technique in the whole-cell configuration using either a PatchXpress automated voltage clamp or manually using an Axopatch 200B (Axon Instruments) or Model 2400 (A-M systems) amplifier.
The manual voltage clamp protocol was as follows: Borosilicate glass micropipettes were fire-polished to a tip diameter yielding a resistance of 2-4 Mohms in the working solutions. […] In some studies, the external sodium was reduced by equimolar replacement with choline. Osmolarity in the CsF internal and NaCl external solutions was adjusted to 300 mOsm/kg and 310 mOsm/kg with glucose, respectively. All recordings were performed at ambient temperature in a bath chamber with a volume of 150 μL. Control sodium currents were measured in 0.5% DMSO. Controls and representative compounds of the invention were applied to the recording chamber through a 4-pinch or 8-pinch valve bath perfusion system manufactured by ALA Scientific Instruments.
Currents were recorded at 40 kHz sampling frequency, filtered at […], and stored using a Digidata-1322A analogue/digital interface with the pClamp software (Axon Instruments). Series resistance compensation was applied (60-80%). […] All statistics in this study are given as mean±SD.
The membrane potential was maintained at a voltage where inactivation of the channel is complete. The voltage is then stepped back to a very negative (Vhold=−150 mV) voltage for 20 ms and then a test pulse is applied to quantify the compound block. The 20 ms brief repolarization was long enough for compound-free channels to completely recover from fast inactivation, but the compound-bound channels recovered more slowly such that negligible recovery could occur during this interval. The percent decrease in sodium current following wash-on of compound was taken as the percent block of sodium channels.

NaV1.6 [2] = biological target: T1, NaV1.6; assay: Sodium Influx Assay (Flux), NaV1.6; details: read-out: Flux NaV1.6 IC50; Trex HEK293 cells, ANG2 dye; arithmetic mean
NaV1.1 = NaV1.1 (Homo sapiens (Human), UniProt P35498); assay: Sodium Influx Assay (Flux), NaV1.1; type: cell-based; details: Trex HEK293 cells, ANG2 dye; arithmetic mean

NaV1.5, sequence (Q14524 other isoform, or with tags, fused parts or gaps): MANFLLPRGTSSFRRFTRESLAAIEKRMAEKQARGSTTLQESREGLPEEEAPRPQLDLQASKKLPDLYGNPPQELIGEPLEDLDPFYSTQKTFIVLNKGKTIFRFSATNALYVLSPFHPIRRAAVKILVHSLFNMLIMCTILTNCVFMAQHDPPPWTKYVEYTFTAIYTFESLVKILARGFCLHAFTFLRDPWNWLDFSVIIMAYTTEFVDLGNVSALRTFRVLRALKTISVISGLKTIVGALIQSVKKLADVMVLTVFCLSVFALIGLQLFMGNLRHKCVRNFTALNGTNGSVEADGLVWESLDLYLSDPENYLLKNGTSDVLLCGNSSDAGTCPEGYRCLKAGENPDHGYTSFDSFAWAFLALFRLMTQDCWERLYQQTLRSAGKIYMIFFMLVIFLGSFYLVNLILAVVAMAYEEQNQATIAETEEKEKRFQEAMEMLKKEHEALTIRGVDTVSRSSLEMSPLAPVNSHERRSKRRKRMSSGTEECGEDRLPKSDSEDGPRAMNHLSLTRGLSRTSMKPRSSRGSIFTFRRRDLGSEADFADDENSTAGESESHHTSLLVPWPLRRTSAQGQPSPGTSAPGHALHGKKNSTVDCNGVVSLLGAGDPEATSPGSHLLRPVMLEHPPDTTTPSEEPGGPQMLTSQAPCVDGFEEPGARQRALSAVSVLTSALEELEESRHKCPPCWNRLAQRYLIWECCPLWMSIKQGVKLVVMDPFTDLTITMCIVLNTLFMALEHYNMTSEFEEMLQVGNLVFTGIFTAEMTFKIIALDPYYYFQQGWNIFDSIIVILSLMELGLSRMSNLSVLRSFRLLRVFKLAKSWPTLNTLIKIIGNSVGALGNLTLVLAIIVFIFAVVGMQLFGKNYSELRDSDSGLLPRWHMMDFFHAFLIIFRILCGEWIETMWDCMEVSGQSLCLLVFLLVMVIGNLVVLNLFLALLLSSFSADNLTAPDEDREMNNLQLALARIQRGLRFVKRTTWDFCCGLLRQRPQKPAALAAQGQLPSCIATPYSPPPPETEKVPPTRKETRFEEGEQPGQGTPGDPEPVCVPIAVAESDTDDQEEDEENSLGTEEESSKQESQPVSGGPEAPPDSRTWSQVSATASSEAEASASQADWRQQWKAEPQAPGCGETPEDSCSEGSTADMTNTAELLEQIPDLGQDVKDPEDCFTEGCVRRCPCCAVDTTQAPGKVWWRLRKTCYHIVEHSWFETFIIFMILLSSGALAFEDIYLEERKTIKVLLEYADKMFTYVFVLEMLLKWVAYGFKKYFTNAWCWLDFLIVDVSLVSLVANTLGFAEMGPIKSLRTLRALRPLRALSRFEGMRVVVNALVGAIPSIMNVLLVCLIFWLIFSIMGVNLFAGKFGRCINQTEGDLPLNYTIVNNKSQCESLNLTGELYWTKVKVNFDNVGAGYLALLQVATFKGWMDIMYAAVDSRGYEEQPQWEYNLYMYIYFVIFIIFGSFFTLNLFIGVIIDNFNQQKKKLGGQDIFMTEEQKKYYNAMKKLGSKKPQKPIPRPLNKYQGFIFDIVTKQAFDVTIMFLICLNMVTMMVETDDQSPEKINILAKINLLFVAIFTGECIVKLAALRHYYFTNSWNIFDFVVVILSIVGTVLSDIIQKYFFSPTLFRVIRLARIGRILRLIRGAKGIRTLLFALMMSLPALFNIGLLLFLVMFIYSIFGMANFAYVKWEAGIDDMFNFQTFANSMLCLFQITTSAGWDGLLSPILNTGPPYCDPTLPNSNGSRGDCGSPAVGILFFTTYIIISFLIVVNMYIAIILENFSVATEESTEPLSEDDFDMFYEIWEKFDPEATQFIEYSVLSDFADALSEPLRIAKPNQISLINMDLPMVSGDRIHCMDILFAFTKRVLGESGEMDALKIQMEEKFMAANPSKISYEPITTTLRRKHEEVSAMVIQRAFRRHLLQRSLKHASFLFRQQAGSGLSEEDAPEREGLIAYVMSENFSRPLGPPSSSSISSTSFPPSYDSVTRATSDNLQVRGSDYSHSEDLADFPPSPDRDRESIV
T1 sequence (Q9UQD0 whole entry): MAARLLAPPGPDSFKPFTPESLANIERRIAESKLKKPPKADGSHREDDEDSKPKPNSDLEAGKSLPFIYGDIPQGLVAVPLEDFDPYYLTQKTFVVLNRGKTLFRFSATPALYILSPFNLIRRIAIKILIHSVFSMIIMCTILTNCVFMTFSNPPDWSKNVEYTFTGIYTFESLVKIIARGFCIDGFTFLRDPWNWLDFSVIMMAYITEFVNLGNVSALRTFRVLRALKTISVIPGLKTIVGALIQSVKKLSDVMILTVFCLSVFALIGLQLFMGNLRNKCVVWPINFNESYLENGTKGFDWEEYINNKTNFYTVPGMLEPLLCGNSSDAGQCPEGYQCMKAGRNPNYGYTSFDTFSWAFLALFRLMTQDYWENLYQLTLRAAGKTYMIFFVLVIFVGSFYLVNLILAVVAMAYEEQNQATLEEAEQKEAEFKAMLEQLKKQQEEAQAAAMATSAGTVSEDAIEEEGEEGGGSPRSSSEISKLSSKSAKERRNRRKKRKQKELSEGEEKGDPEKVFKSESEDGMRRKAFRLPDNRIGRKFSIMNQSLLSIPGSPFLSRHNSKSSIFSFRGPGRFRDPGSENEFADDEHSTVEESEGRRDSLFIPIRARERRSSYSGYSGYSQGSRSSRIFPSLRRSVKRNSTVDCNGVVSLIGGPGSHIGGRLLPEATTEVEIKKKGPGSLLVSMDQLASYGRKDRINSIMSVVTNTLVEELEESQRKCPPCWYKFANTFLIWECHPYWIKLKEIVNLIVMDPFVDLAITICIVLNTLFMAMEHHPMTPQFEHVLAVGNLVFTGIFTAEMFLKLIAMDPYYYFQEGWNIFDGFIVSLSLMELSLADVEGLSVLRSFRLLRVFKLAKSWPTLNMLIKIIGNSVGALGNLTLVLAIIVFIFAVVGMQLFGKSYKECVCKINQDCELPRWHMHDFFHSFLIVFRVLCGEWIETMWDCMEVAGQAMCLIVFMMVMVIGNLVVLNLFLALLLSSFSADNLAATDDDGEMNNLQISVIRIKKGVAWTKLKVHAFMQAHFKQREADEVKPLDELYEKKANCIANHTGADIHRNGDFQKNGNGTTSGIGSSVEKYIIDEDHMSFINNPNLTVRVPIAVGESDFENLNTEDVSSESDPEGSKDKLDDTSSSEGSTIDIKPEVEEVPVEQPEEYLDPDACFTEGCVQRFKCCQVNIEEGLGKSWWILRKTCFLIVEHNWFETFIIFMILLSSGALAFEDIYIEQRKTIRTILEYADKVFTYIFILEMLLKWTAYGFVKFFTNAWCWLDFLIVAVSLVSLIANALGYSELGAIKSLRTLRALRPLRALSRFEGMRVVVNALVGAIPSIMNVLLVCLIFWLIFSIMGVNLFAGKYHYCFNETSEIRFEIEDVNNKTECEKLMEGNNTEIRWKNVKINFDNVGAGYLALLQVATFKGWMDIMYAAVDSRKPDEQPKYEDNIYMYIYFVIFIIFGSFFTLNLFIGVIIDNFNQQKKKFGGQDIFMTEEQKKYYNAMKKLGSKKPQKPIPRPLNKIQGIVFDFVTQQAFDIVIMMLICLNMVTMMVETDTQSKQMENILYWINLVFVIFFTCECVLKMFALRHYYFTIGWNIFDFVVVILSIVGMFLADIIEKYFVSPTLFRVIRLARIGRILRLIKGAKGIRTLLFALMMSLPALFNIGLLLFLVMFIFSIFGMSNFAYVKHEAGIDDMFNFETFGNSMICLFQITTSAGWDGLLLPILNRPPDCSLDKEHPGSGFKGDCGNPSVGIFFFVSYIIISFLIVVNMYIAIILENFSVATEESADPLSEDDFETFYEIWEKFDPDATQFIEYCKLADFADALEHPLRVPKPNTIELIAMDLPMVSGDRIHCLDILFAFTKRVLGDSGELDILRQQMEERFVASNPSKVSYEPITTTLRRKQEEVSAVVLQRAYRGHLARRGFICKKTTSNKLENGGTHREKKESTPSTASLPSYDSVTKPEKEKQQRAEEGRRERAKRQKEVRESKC

SMILES | pIC50 (NaV1.1) | pIC50 (NaV1.5) | pIC50 (NaV1.6 [1]) | pIC50 (NaV1.6 [2])
O=S(=O)(Nc1ncns1)c1ccc(NC2CCN(Cc3ccccc3)C2)c(Cl)c1 (stereo not shown) [Example 26, 4-((1-benzylpyrrolidin-3-yl)amino)-3-chloro-N-(1,2,4-thiadiazol-5-yl)benzenesulfonamide trifluoroacetate] | 4.82 | < 4.52 | 6.79 | 6.63
O=S(=O)(Nc1ncns1)c1ccc(NC2CCN(Cc3ccccc3)CC2)c(Cl)c1 [Example 46, 4-((1-benzylpiperidin-4-yl)amino)-3-chloro-N-(1,2,4-thiadiazol-5-yl)benzenesulfonamide 2,2,2-trifluoroacetate] | 5.38 | < 4.52 | 6.56 | 6.14
O=S(=O)(Nc1nccs1)c1cc(Cl)c(OC2CCN(Cc3ccccc3)CC2)cc1F [Example 47, 4-((1-benzylpiperidin-4-yl)oxy)-5-chloro-2-fluoro-N-(thiazol-2-yl)benzenesulfonamide 2,2,2-trifluoroacetate] | 4.91 | 4.80 | 6.32 | 6.03
C[C@H](c1ccccc1)N1CCC(Oc2ccc(S(=O)(=O)Nc3nccs3)cc2Cl)CC1 [Example 55, (R)-3-chloro-4-((1-(1-phenylethyl)piperidin-4-yl)oxy)-N-(thiazol-2-yl)benzenesulfonamide 2,2,2-trifluoroacetate] | – | – | 7.49 | 6.73
O=S(=O)(Nc1ncns1)c1ccc(N[C@@H]2CCN(Cc3ccccc3)C2)c(Cl)c1 [Example 66, (R)-4-((1-benzylpyrrolidin-3-yl)amino)-3-chloro-N-(1,2,4-thiadiazol-5-yl)benzenesulfonamide 2,2,2-trifluoroacetate] | 5.26 | < 4.52 | 6.84 | 6.83
O=S(=O)(Nc1ncns1)c1ccc(N[C@H]2CCN(Cc3ccccc3)C2)c(Cl)c1 [Example 67, (S)-4-((1-benzylpyrrolidin-3-yl)amino)-3-chloro-N-(1,2,4-thiadiazol-5-yl)benzenesulfonamide 2,2,2-trifluoroacetate] | < 4.52 | < 4.52 | 6.34 | 6.51
O=S(=O)(Nc1nccs1)c1ccc(OC2CCN(Cc3ccccc3)CC2)c(Cl)c1 [Example 95, 4-(1-benzylpiperidin-4-yloxy)-3-chloro-N-(thiazol-2-yl)benzenesulfonamide 2,2,2-trifluoroacetate] | – | 4.68 | 6.75 | 6.38
Cc1cc(C)cc(CN2CC[C@H](Oc3ccc(S(=O)(=O)Nc4ncns4)cc3Cl)C2)c1 [Example 99, (S)-3-chloro-4-(1-(3,5-dimethylbenzyl)pyrrolidin-3-yloxy)-N-(1,2,4-thiadiazol-5-yl)benzenesulfonamide 2,2,2-trifluoroacetate] | < 4.52 | < 4.52 | 5.35 | 5.85
Cc1cc(S(=O)(=O)Nc2cscn2)c(F)cc1N(C)[C@H]1CCN(Cc2ccccc2)C1 [Example 101, (S)-4-((1-benzylpyrrolidin-3-yl)(methyl)amino)-2-fluoro-5-methyl-N-(thiazol-4-yl)benzenesulfonamide formate] | – | – | 7.27 | 6.57
Cc1c(O[C@@]2(C)CCN(Cc3ccccc3)C2)cc(F)c(S(=O)(=O)Nc2cscn2)c1F [Example 158, (S)-4-((1-benzyl-3-methylpyrrolidin-3-yl)oxy)-2,6-difluoro-3-methyl-N-(thiazol-4-yl)benzenesulfonamide formate] | 4.62 | < 4.52 | 8.10 | 8.05
Cc1c(N(C)[C@H]2CCN(Cc3cc(F)ccc3F)C2)ccc(S(=O)(=O)Nc2cscn2)c1F [Example 322, (S)-4-((1-(2,5-difluorobenzyl)-pyrrolidin-3-yl)(methyl)amino)-2-fluoro-3-methyl-N-(thiazol-4-yl)benzenesulfonamide 2,2,2-trifluoroacetate] | 5.22 | 5.13 | – | 6.63
CN(c1ccc(S(=O)(=O)Nc2cscn2)c(F)c1Cl)[C@H]1CCN(Cc2ccccc2)C1 [Example 328, (S)-4-((1-benzylpyrrolidin-3-yl)(methyl)amino)-3-chloro-2-fluoro-N-(thiazol-4-yl)benzenesulfonamide 2,2,2-trifluoroacetate] | 4.79 | 4.74 | – | 6.10

The next lines start with results.

pIC50 (NaV1.1) | SMILES | pIC50 (NaV1.5) | pIC50 (NaV1.6 [1]) | pIC50 (NaV1.6 [2])
4.65 | CC1(C)CN(Cc2ccccc2)CCC1Oc1ccc(S(=O)(=O)Nc2ncns2)cc1Cl (stereo not shown) [Example 2, 4-((1-benzyl-3,3-dimethylpiperidin-4-yl)oxy)-3-chloro-N-(1,2,4-thiadiazol-5-yl)benzenesulfonamide 2,2,2-trifluoroacetate] | 5.20 | 6.42 | 5.87
4.56 | CN(c1ccc(S(=O)(=O)Nc2ncns2)cc1Cl)[C@H]1CCN(Cc2cccc(C(F)F)c2)C1 [Example 31, (S)-3-chloro-4-((1-(3-(difluoromethyl)benzyl)pyrrolidin-3-yl)(methyl)amino)-N-(1,2,4-thiadiazol-5-yl)benzenesulfonamide] | < 4.52 | 7.54 | 7.89
4.72 | O=S(=O)(Nc1cccc(F)n1)c1ccc(OC2CCN(Cc3ccccc3)CC2)c(Cl)c1 [Example 77, 4-((1-benzylpiperidin-4-yl)oxy)-3-chloro-N-(6-fluoropyridin-2-yl)benzenesulfonamide 2,2,2-trifluoroacetate] | 4.58 | 5.25 | 5.12
< 4.52 | O=S(=O)(Nc1ncns1)c1ccc(O[C@H]2CCN(Cc3ccccc3)C2)c(Cl)c1 [Example 97, (S)-4-(1-benzylpyrrolidin-3-yloxy)-3-chloro-N-(1,2,4-thiadiazol-5-yl)benzenesulfonamide 2,2,2-trifluoroacetate] | < 4.52 | 5.53 | 5.84
< 4.52 | Cc1cccc(CN2CC[C@H](N(C)c3cc(F)c(S(=O)(=O)Nc4cscn4)c(F)c3Cl)C2)n1 [Example 267, (S)-3-chloro-2,6-difluoro-4-(methyl(1-((6-methylpyridin-2-yl)methyl)pyrrolidin-3-yl)amino)-N-(thiazol-4-yl)benzenesulfonamide] | < 4.52 | 7.18 | 6.74
4.91 | Cc1c(N(C)[C@H]2CCN(Cc3cccc(C(F)F)c3)C2)ccc(S(=O)(=O)Nc2cscn2)c1F [Example 323, (S)-4-((1-(3-(difluoromethyl)benzyl)-pyrrolidin-3-yl)(methyl)amino)-2-fluoro-3-methyl-N-(thiazol-4-yl)benzenesulfonamide] | 4.87 | – | 6.68
< 4.52 | Cc1ccc(F)c(CN2CC[C@H](N(C)c3ccc(S(=O)(=O)Nc4cscn4)c(F)c3C)C2)n1 [Example 324, (S)-2-fluoro-4-((1-((3-fluoro-6-methylpyridin-2-yl)methyl)pyrrolidin-3-yl)(methyl)amino)-3-methyl-N-(thiazol-4-yl)benzenesulfonamide 2,2,2-trifluoroacetate] | < 4.52 | – | 6.39
4.63 | CN(c1ccc(S(=O)(=O)Nc2ncns2)cc1Cl)[C@H]1CCN(Cc2cc(F)ccc2F)C1 [Example 325, (S)-3-chloro-4-((1-(2,5-difluorobenzyl)pyrrolidin-3-yl)(methyl)amino)-N-(1,2,4-thiadiazol-5-yl)benzenesulfonamide] | 4.57 | – | 6.59
< 4.52 | CN(c1ccc(S(=O)(=O)Nc2ncns2)cc1Cl)[C@H]1CCN(Cc2c(F)cccc2F)C1 [Example 326, (S)-3-chloro-4-((1-(2,6-difluorobenzyl)pyrrolidin-3-yl)(methyl)amino)-N-(1,2,4-thiadiazol-5-yl)benzenesulfonamide] | 4.61 | – | 6.52
5.11 | Cc1cc(S(=O)(=O)Nc2cscn2)c(F)cc1N(C)[C@H]1CCN(Cc2cccc(F)c2F)C1 [compound 156, (S)-4-((1-(2,3-difluorobenzyl)pyrrolidin-3-yl)(methyl)amino)-2-fluoro-5-methyl-N-(thiazol-4-yl)benzenesulfonamide] | 4.99 | – | 6.53
